# Reference: US20220409620A1, “REDUCING IMMUNOGENICITY TO PEGLOTICASE” (Horizon Pharma Rheumatology LLC, priority 2016, published 2022)
# System: adult patients with uncontrolled gout
# Assay: Serum uric acid (sUA) levels and sUA responder rate, open-label study of pegloticase with MTX (MIRROR OL)
# Format: in vivo, human
# Settings: Month 6 sUA Responders
# Protocol: The primary objective is to estimate the response rate during Month 6 (Weeks 20, 22, and 24), as measured by the sustained normalization of serum uric acid (SUA) to <6 mg/dL for at least 80% of the time during Month 6 in subjects receiving KXX with MTX.
# The primary efficacy outcome endpoint is the sustained normalization of SUA to <6 mg/dL for at least 80% of the time during month 6 (weeks 20, 22, and 24) in subjects receiving KXX with MTX. […] Participants who achieve this endpoint were classified as “responders.” Serum uric acid (SUA) responders may also be defined as participants achieving and maintaining SUA <6 mg/dL for at least 80% of the time during Month 6 (Weeks 20, 22, and 24).
# Blood samples may be collected prior to each pegloticase infusion for measurement of SUA levels using the Beckman Coulter AU System Uric Acid procedure. Participants were declared “non-responders” if there were SUA measures >6 mg/dL at 2 consecutive study visits beginning with the week 2 visit. […] This assumption and subsequent discontinuation of pegloticase was consistent with the protocol of large phase III randomized controlled trials and the product label. A formal stopping rule was 2 occasions of SUA levels of greater than 6 mg/dL.
# Clinical Chemistry—Blood samples were collected prior to each pegloticase infusion for measurement of SUA levels (primary efficacy parameter) using the Beckman Coulter AU System Uric Acid procedure. In this procedure uric acid is converted to hydrogen peroxide. Hydrogen peroxide reacts with reagent to produce a chromophore which is read bichromatically at 660/800 nm. The amount of dye formed is proportional to the uric acid concentration in the sample.
# Serum samples for measurement of SUA levels were collected at the Screening Visit, the Week −4 Visit (prior to the first dose of MTX), and the Week −2 Visit during the MTX Run-in Period; within 48 hours prior to each pegloticase infusion and after the end of each pegloticase infusion prior to discharge from the site during the Pegloticase+IMM Period; at the non-infusion Week 52/End of Study/Early Termination Visits and at the Post Treatment 3 and 6 Month Follow-up Visits. Additional serum samples for SUA levels were collected at optional non-infusion (Frequent Sampling) Visits at Weeks 1 and 7. […] Subjects with SUA level >6 mg/dL at 2 consecutive visits beginning at Week 2 visit discontinued treatment, completed the End of Pegloticase Infusion Visit procedures within 2 weeks and continued the subject visits according to the protocol (without treatment).
# Efficacy analyses were performed using the modified intention-to-treat (mITT) population, defined as all enrolled subjects who received ≥1 dose of pegloticase. The proportion of Month 6 responders was summarized, along with a 95% confidence interval for the proportion. The proportion of Month 3 and overall (Months 3 and 6 combined) responders was analyzed similarly.
# A subject was declared a non-responder if the subject had SUA level >6 mg/dL at 2 consecutive study visits beginning with the Week 2 Visit. In addition, a subject who withdraws from study treatment for any reason after the first dose of pegloticase in the KXX+MTX Period and prior to Month 6 (for the primary endpoint) or Month 3 (for the secondary endpoint) was considered a non-responder if SUA values were not collected at the planned time points.
# Patients were administered oral MTX (15 mg/week) and folate (1 mg/day) 4 weeks prior to the first pegloticase infusion (Day 1) and throughout the pegloticase treatment period. Blood was drawn prior to each infusion to measure sUA level, monitor clinical parameters, and examine for ADA development. All patients followed typical IR prophylaxis protocols (fexofenadine one day before and the morning of each infusion and acetaminophen and IV corticosteroid the morning of each infusion).
substance,measurement,setting,value
pegloticase,"Serum Uric Acid, Observed, Mean (SD)","Week 28-Pre-Infusion, n=8",0.30 (0.000) mg/dL
same,"Serum Uric Acid, Observed, Median","Week 28-Pre-Infusion, n=8",0.30 mg/dL
same,"sUA <6 mg/dL, n (%)","Week 28-Pre-Infusion, n=8",8 (100%)
same,"Serum Uric Acid, Change from Baseline, Mean (SD)","Week 30-Pre-Infusion, n=8",−9.11 (3.293) mg/dL
same,"Serum Uric Acid, Change from Baseline, Median","Week 30-Pre-Infusion, n=8",-8.95 mg/dL
same,"Serum Uric Acid, Observed, Mean (SD)","Week 30-Pre-Infusion, n=8",0.30 (0.000) mg/dL
same,"Serum Uric Acid, Observed, Median","Week 30-Pre-Infusion, n=8",0.30 mg/dL
same,"sUA <6 mg/dL, n (%)","Week 30-Pre-Infusion, n=8",8 (100%)
same,"Serum Uric Acid, Change from Baseline, Mean (SD)","Week 32-Post-Infusion, n=8",−9.11 (3.293) mg/dL
same,"Serum Uric Acid, Change from Baseline, Median","Week 32-Post-Infusion, n=8",-8.95 mg/dL
same,"Serum Uric Acid, Observed, Mean (SD)","Week 32-Post-Infusion, n=8",0.30 (0.000) mg/dL
same,"Serum Uric Acid, Observed, Median","Week 32-Post-Infusion, n=8",0.30 mg/dL
same,"sUA <6 mg/dL, n (%)","Week 32-Post-Infusion, n=8",8 (100%)
same,"Serum Uric Acid, Change from Baseline, Mean (SD)","Week 32-Pre-Infusion, n=10",−8.99 (2.961) mg/dL
same,"Serum Uric Acid, Change from Baseline, Median","Week 32-Pre-Infusion, n=10",-8.95 mg/dL
same,"Serum Uric Acid, Observed, Mean (SD)","Week 32-Pre-Infusion, n=10",0.30 (0.000) mg/dL
same,"Serum Uric Acid, Observed, Median","Week 32-Pre-Infusion, n=10",0.30 mg/dL
same,"sUA <6 mg/dL, n (%)","Week 32-Pre-Infusion, n=10",10 (100%)
same,"Serum Uric Acid, Change from Baseline, Mean (SD)","Week 34-Post-Infusion, n=8",−9.11 (3.293) mg/dL
same,"Serum Uric Acid, Change from Baseline, Median","Week 34-Post-Infusion, n=8",-8.95 mg/dL
same,"Serum Uric Acid, Observed, Mean (SD)","Week 34-Post-Infusion, n=8",0.30 (0.000) mg/dL
same,"Serum Uric Acid, Observed, Median","Week 34-Post-Infusion, n=8",0.30 mg/dL
same,"sUA <6 mg/dL, n (%)","Week 34-Post-Infusion, n=8",8 (100%)
same,"Serum Uric Acid, Change from Baseline, Mean (SD)","Week 34-Pre-Infusion, n=10",−8.47 (3.248) mg/dL
same,"Serum Uric Acid, Change from Baseline, Median","Week 34-Pre-Infusion, n=10",-7.95 mg/dL
same,"Serum Uric Acid, Observed, Mean (SD)","Week 34-Pre-Infusion, n=10",0.82 (1.046) mg/dL
same,"Serum Uric Acid, Observed, Median","Week 34-Pre-Infusion, n=10",0.30 mg/dL
same,"sUA <6 mg/dL, n (%)","Week 34-Pre-Infusion, n=10",10 (100%)
same,"Serum Uric Acid, Change from Baseline, Mean (SD)","Week 36-Post-Infusion, n=6",−9.38 (3.799) mg/dL
same,"Serum Uric Acid, Change from Baseline, Median","Week 36-Post-Infusion, n=6",-9.20 mg/dL
same,"Serum Uric Acid, Observed, Mean (SD)","Week 36-Post-Infusion, n=6",0.30 (0.000) mg/dL
same,"Serum Uric Acid, Observed, Median","Week 36-Post-Infusion, n=6",0.30 mg/dL
same,"sUA <6 mg/dL, n (%)","Week 36-Post-Infusion, n=6",6 (100%)
same,"Serum Uric Acid, Change from Baseline, Mean (SD)","Week 36-Pre-Infusion, n=9",−7.90 (4.094) mg/dL
same,"Serum Uric Acid, Change from Baseline, Median","Week 36-Pre-Infusion, n=9",-8.60 mg/dL
same,"Serum Uric Acid, Observed, Mean (SD)","Week 36-Pre-Infusion, n=9",1.58 (2.425) mg/dL
same,"Serum Uric Acid, Observed, Median","Week 36-Pre-Infusion, n=9",0.30 mg/dL
same,"sUA <6 mg/dL, n (%)","Week 36-Pre-Infusion, n=9",8 ( 88.9%)
same,"Serum Uric Acid, Change from Baseline, Mean (SD)","Week 38-Pre-Infusion, n=5",−8.41 (5.229) mg/dL
same,"Serum Uric Acid, Change from Baseline, Median","Week 38-Pre-Infusion, n=5",-8.60 mg/dL
same,"Serum Uric Acid, Observed, Mean (SD)","Week 38-Pre-Infusion, n=5",0.93 (1.583) mg/dL
same,"Serum Uric Acid, Observed, Median","Week 38-Pre-Infusion, n=5",0.30 mg/dL
same,"sUA <6 mg/dL, n (%)","Week 38-Pre-Infusion, n=5",5 (100%)
same,"Serum Uric Acid, Change from Baseline, Mean (SD)","Week 40-Pre-Infusion, n=3",−11.30 (3.686) mg/dL
same,"Serum Uric Acid, Change from Baseline, Median","Week 40-Pre-Infusion, n=3",-9.80 mg/dL
same,"Serum Uric Acid, Observed, Mean (SD)","Week 40-Pre-Infusion, n=3",0.30 (0.000) mg/dL
same,"Serum Uric Acid, Observed, Median","Week 40-Pre-Infusion, n=3",0.30 mg/dL
same,"sUA <6 mg/dL, n (%)","Week 40-Pre-Infusion, n=3",3 (100%)
same,"Serum Uric Acid, Change from Baseline, Mean (SD)","Week 42-Pre-Infusion, n=3",−11.30 (3.686) mg/dL
same,"Serum Uric Acid, Change from Baseline, Median","Week 42-Pre-Infusion, n=3",-9.80 mg/dL
same,"Serum Uric Acid, Observed, Mean (SD)","Week 42-Pre-Infusion, n=3",0.30 (0.000) mg/dL
same,"Serum Uric Acid, Observed, Median","Week 42-Pre-Infusion, n=3",0.30 mg/dL
same,"sUA <6 mg/dL, n (%)","Week 42-Pre-Infusion, n=3",3 (100%)
same,"Serum Uric Acid, Change from Baseline, Mean (SD)","Week 44-Pre-Infusion, n=3",−10.55 (4.625) mg/dL
same,"Serum Uric Acid, Change from Baseline, Median","Week 44-Pre-Infusion, n=3",-9.80 mg/dL
same,"Serum Uric Acid, Observed, Mean (SD)","Week 44-Pre-Infusion, n=3",1.05 (1.305) mg/dL
same,"Serum Uric Acid, Observed, Median","Week 44-Pre-Infusion, n=3",0.30 mg/dL
same,"sUA <6 mg/dL, n (%)","Week 44-Pre-Infusion, n=3",3 (100%)
same,"Serum Uric Acid, Change from Baseline, Mean (SD)","Week 46-Pre-Infusion, n=2",−12.65 (4.031) mg/dL
same,"Serum Uric Acid, Change from Baseline, Median","Week 46-Pre-Infusion, n=2",-12.65 mg/dL
same,"Serum Uric Acid, Observed, Mean (SD)","Week 46-Pre-Infusion, n=2",0.30 (0.000) mg/dL
same,"Serum Uric Acid, Observed, Median","Week 46-Pre-Infusion, n=2",0.30 mg/dL
same,"sUA <6 mg/dL, n (%)","Week 46-Pre-Infusion, n=2",2 (100%)
